We go through one compound from patent US12121518B2, “PARP-1 and methods of use thereof” (The Board of Supervisors of Louisiana State University and …, priority 2017, dated 2024).

For data set [1], the system named is steroid-resistant leukemia cells. Description: Steroid-resistant leukemia cells: cell killing and NOTCH levels. Type of data set: cell-based. Particulars: 4 nM.
Another data set concerns MDSCs and T cells. Description: FACS of tumor-infiltrating and spleen immune cells in the MC-38 model. Type of data set: in vivo, mouse. The text has this: Tumors from the different experimental groups were either processed to generate single-cell suspensions or fixed with formalin. Single cell suspensions were stained with a combination of antibodies to CD45, CD11b, Gr1, Ly6C, and Ly6G. CD11b^+ cell population was gated from the live CD45^+ population. (A) Representative FACS dot plot of the experimental groups. (B) Absolute numbers and percentages of CD11b^+Gr1^+ cell populations in tumors of the different groups. (C) Absolute numbers and percentages of CD11b^+Ly6C^+ and CD11b^+Ly6G^+ populations in tumors of the different groups. (D) Absolute numbers and percentages of CD45^+CD3^+ and CD3^+CD8^+ cell populations in tumors of the different groups. […] (F) Percentages of CD45^+CD3^+ and CD3^+CD8^+ cell populations in spleens of the different groups. […] T cell proliferation was assessed by FACS. p≤0.05; **, p≤0.01; ***, p≤0.001.
Flow cytometric characterization of tumor infiltrating immune cells using fluorescence-activated cell sorting (FACS) analysis—Following digestion, tumor homogenates were filtered through a […] cell strainer to obtain a single cell suspension. Cell suspensions were then subjected to red blood cell lysis using ACK buffer for 5 minutes before resuspending in complete media. Cells were treated with anti-CD16/CD32 (BD; 2.4G2) for Fc blocking prior to staining with fluorescently-labeled mouse antibodies specific for CD45 (30-F11), CD3e (500A2) (both from eBioscience, San Diego, CA), Ly6C (AL-21), Ly6G (1A8), Gr1 (RB6-8C5), CD11b (M1/70), CD8 (53-6.7), and PD-1 (PA5-J43) (all from BD Biosciences, San Jose, CA). Single cells were gated by first using forward- and side-scatter doublet discrimination. Immune cells were discriminated from this doublet-excluded population using CD45. Myeloid cells were identified using a CD11b^+gate and MDSC subtypes identified by Gr1 selection and then plotted Ly6G/Ly6C. CD3^+ T-cells were gated from CD45^+ cells. CD4^+ and C8^+ T-cells were identified from CD3^+ gate. The detailed gating strategy is described in FIG. 45.

Data set [2] deals with APC^Min-induced tumor burden. Description: APC^Min/+ spontaneous intestinal tumorigenesis mouse model. Type of data set: in vivo. As to conditions: APC^Min/+ mice; for intestinal tumor burden: assessed at 16 weeks of age. The source says:
If chronic inflammation is the sole mechanism by which PARP-1 participates in colon tumorigenesis, then the ability to severely block inflammation upon inhibition of the enzyme, pharmacologically or genetically, should almost entirely alleviate the tumor burden. According to the above data, however, this is not the case. […] In general, APC^Min/+ mice have a rather short lifespan and often die not only as a result of tumor burden but also due to development of severe anemia, substantial cachexia, and/or intestinal intussusceptions. To this end, C57BL/6 PARP-1^+/− and PARP-1^−/− mice were generated in the APC^Min/+ background (FIG. 39). PARP-1 heterozygosity provided remarkable protection against tumor development (FIG. 33A). […] Conversely, PARP-1 knockout promoted an increase in the number of small tumors.
Tumor models, assessment of tumor burden and adoptive transfer—For the azoxymethane/Dextran Sulfate Sodium (AOM/DSS)-induced tumorigenesis model, six to eight weeks old WT, PARP-1^+/− or PARP-1^−/− mice received a single dose (10 mg/kg) of AOM, i.p., followed by 4 cycles of 1.25% DSS provided in drinking water. Each cycle consisted of a week of DSS water separated by 2 weeks of regular water. […] At week 22 after the start of the experimental protocol, mice were sacrificed by CO2 asphyxiation. Colons, spleens, and blood were collected for analysis. Colons were opened longitudinally and washed with PBS to assess the tumor burdens using a dissecting microscope. For the APC^Min-mediated model, APC^Min/+, APC^Min/+PARP-1^+/−, or APC^Min/+PARP-1^−/− male mice were sacrificed at 16 weeks of age. […] Sacrificed mice were processed as described above except that the tumor burden was assessed along the whole intestinal track. Tumors were counted and divided in groups lower than 2 mm, 2-4 mm, and tumors bigger than 4 mm in diameter.
Tissue processing, immunohistochemistry, immunofluorescence and cytokines measurement—Some tissues were fixed in buffered formalin (10%), paraffin-embedded, then sectioned. Serial sections were subjected to H&E staining, immunohistochemistry (IHC) or immunofluorescence, as described (33), with antibodies to PCNA (Novusbio, Littleton, CO), COX-2 (Santa Cruz Biotechnology, Santa Cruz, CA), ICAM-1 (Santa Cruz Biotechnology), CD8 (Santa Cruz Biotechnology), or Gr1 (eBioscience, San Diego, USA) as previously described (34). Some of the sections were subjected to immunofluorescence with antibodies to CD8 or Gr1. Blood, collected by cardiac puncture, was run through a Microtainer Serum Separator tube (BD, Franklin Lake, NJ). The collected sera were immediately stored at −80° C. for future use and analysis. Cytokine levels were assessed for TNF-α (ELM-TNFα-1), IL-6 (ELM-IL-6-1), and MCP-1 (ELM-MCP1) by ELISA (all from RayBiotech, Norcross, GA) according to the manufacturer's instructions and recommendations.

In the next data set the test system is CD3+ T cells. Description: Proliferation of CD3/CD28-stimulated T cells in the absence of MDSCs. As to conditions: 72 h, no MDSCs.

“Also recorded” adds a separate entry of the source.

Procedure for CD3+ T cells: After 96 h, cells were collected and stained with antibodies to CD11b or Gr1 and assessed by FACS (A) or co-cultured with CD3/CD28-stimulated and CFSC-labeled WT CD3^+ T cells for 72 h followed by an assessment of proliferation by FACS (B).

Take `O=C(c1cc(Cc2n[nH]c(=O)c3ccccc23)ccc1F)N1CCN(C(=O)C2CC2)CC1` [olaparib]: the “sensitivity of the cells to dexamethasone” value in data set [1] was “completely reversed sensitivity of the cells to dexamethasone”. For the same compound, the “CD3+ T cells in tumors (mostly CD8+)” value in the data set with MDSCs and T cells (low dose 0.2 mg/kg) is on record as “increased”. The “percentages and numbers of CD11b+/Gr1+ MDSCs in tumors” value with MDSCs and T cells (low dose 0.2 mg/kg) is “did not significantly affect”. Further, the “numbers and percentages of M-MDSCs in tumors” value in the data set on MDSCs and T cells (moderate dose 5 mg/kg) is “significantly increased”. Moreover, the “overall CD3+ T cells in spleens (with concomitant decrease in CD8+)” value with MDSCs and T cells (moderate dose 5 mg/kg) was “substantial decrease”. Moreover, the intestinal tumor burden entry in data set [2] (5 mg/kg i.p. twice a week) is listed as “good protection against the tumor burden; also recorded: good protection against tumor development”; in data set [2] (5 mg/kg i.p. twice a week, listed as Olaparib) it was “reduces the tumor burden”; in data set [2] (25 mg/kg i.p. twice a week) it was “no protection against the burden; also recorded: no significant protection”. In addition, the systemic inflammation result in data set [2] is given as “effective at blocking systemic inflammation”. Also, the “cachexia (body weight)” value in data set [2] (high dose (25 mg/kg)) is recorded as “did not”; in data set [2] (moderate dose (5 mg/kg)) it was “protected against cachexia”. For the same compound, the “proliferation of T cells” value with CD3+ T cells (high concentration 5 μM) was “significant effects on T-cell proliferation”; in the data set on CD3+ T cells (low concentration 4 nM) it was “no effect on proliferation of T cells”; with CD3+ T cells (moderate concentration 0.1 μM), “significant effects on T-cell proliferation”.
